Values quoted from earlier work as cited in patent US8288116B2, “Methods and compositions for isolating metastatic cancer cells, and use in measuring metastatic potential of a cancer thereof” (The Research Foundation of State University of New York, priority 2000, dated 2012).

Test system: patients with cancer
Conditions: trials in patients with cancer

Compound | anti-metastatic, anti-invasive effects
angiostatin | not produced obvious evidence
CC1(C)SCCN(S(=O)(=O)c2ccc(Oc3ccncc3)cc2)[C@H]1C(=O)NO [AG3340] | not produced obvious evidence
CNC(=O)[C@@H](NC(=O)[C@H](CC(C)C)[C@H](O)C(=O)NO)C(C)(C)C [Marimastat] | not produced obvious evidence
endostatin | not produced obvious evidence
